Assay results taken from PubChem BioAssay AID330 (DTP/NCI, 2004).
Values joined by “and” are separate entries in the source; they are usually repeats but may differ in a detail not shown here. Identical values can stand only once. Inconclusive results and toxic doses are left out. Rule for the calls: active = survival T/C of 150% or more; inactive = T/C below 125% in these data. Peptide text beside a SMILES is read from it. * marks the point of attachment. For = O=C*

Test system: P388 leukemia ip, CD2F1 mice, survival T/C
Experiment: NCI In Vivo Anticancer Drug Screen. Data for tumor model P388 Leukemia (intraperitoneal) in CD2F1 (CDF1) mice
Details: endpoint: median survival time, higher = longer survival
How it was run: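 Mice carrying the transplanted tumor received test compound or vehicle. Survival was recorded in each group, and the value is the treated-group measurement divided by that of the vehicle-treated control group.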

[1] = dose: 50.0 mg/kg/injection, schedule: Q01DX005 (ip), vehicle: saline with Tween-80
[2] = dose: 100.0 mg/kg/injection, schedule: Q01DX005 (ip), vehicle: saline with Tween-80
[3] = dose: 50.0 mg/kg/injection, schedule: Q01DX009 (ip), vehicle: Klucel (hydroxypropylcellulose) (HPC)
[4] = dose: 100.0 mg/kg/injection, schedule: Q01DX009 (ip), vehicle: Klucel (hydroxypropylcellulose) (HPC)
[5] = dose: 200.0 mg/kg/injection, schedule: Q01DX009 (ip), vehicle: Klucel (hydroxypropylcellulose) (HPC)
[6] = dose: 50.0 mg/kg/injection, schedule: Q01DX009 (ip), vehicle: saline with Tween-80
[7] = dose: 50.0 mg/kg/injection, schedule: Q01DX005 (ip), vehicle: Klucel (hydroxypropylcellulose) (HPC)
[8] = dose: 100.0 mg/kg/injection, schedule: Q01DX005 (ip), vehicle: Klucel (hydroxypropylcellulose) (HPC)
[9] = dose: 200.0 mg/kg/injection, schedule: Q01DX005 (ip), vehicle: Klucel (hydroxypropylcellulose) (HPC)

Measured: T/C

Cc1cc2c(=O)cc(-c3ccccc3Cl)oc2c(C#N)c1C
inactive: dose: 1.87 mg/kg/injection, schedule: Q01DX005 (ip), vehicle: Klucel (hydroxypropylcellulose) (HPC) 95 % of control | dose: 3.75 mg/kg/injection, schedule: Q01DX005 (ip), vehicle: Klucel (hydroxypropylcellulose) (HPC) 101 % of control | dose: 7.5 mg/kg/injection, schedule: Q01DX005 (ip), vehicle: Klucel (hydroxypropylcellulose) (HPC) 117 % of control | dose: 60.0 mg/kg/injection, schedule: Q01DX005 (ip), vehicle: Klucel (hydroxypropylcellulose) (HPC) 86 % of control | dose: 240.0 mg/kg/injection, schedule: Q01DX005 (ip), vehicle: Klucel (hydroxypropylcellulose) (HPC) 95 % of control

CNCC(=O)NC(CO)C(=O)NC(CO)C(=O)NC1C(C(N)=O)OC(n2ccc(N)nc2=O)C(O)C1O (configuration not stated)
inactive: dose: 0.1 mg/kg/injection, schedule: Q01DX009 (ip), vehicle: water 101 % of control | dose: 0.2 mg/kg/injection, schedule: Q01DX009 (ip), vehicle: water 100 % of control | dose: 0.4 mg/kg/injection, schedule: Q01DX009 (ip), vehicle: water 117 % of control | dose: 0.8 mg/kg/injection, schedule: Q01DX009 (ip), vehicle: water 95 % of control

O/C(=C\C(=S)S)c1ccccc1
inactive: dose: 1.56 mg/kg/injection, schedule: Q04DX003 (ip), vehicle: Klucel (hydroxypropylcellulose) (HPC) 96 % of control | dose: 3.12 mg/kg/injection, schedule: Q04DX003 (ip), vehicle: Klucel (hydroxypropylcellulose) (HPC) 96 % of control | dose: 6.25 mg/kg/injection, schedule: Q04DX003 (ip), vehicle: Klucel (hydroxypropylcellulose) (HPC) 97 % of control

CC(=O)C1(O)CCC2(O)C3(O)CC=C4CC(O)CCC4(C)C3CC(OC(=O)c3ccc(O)cc3)C12C (configuration not stated)
inactive: dose: 11.75 mg/kg/injection, schedule: Q01DX005 (ip), vehicle: distilled water + Tween-80 + alcohol 93 % of control | dose: 23.5 mg/kg/injection, schedule: Q01DX005 (ip), vehicle: distilled water + Tween-80 + alcohol 94 % of control | dose: 47.0 mg/kg/injection, schedule: Q01DX005 (ip), vehicle: distilled water + Tween-80 + alcohol 95 % of control | dose: 94.0 mg/kg/injection, schedule: Q01DX005 (ip), vehicle: distilled water + Tween-80 + alcohol 94 % of control

CCNc1ccc2c(-c3ccccc3C(=O)O)c3ccc(=[N+](CC)CC)cc-3oc2c1
inactive: [1] 105 % of control | [2] 95 % of control

CC1CC(C)NC(N=S(=O)(O)c2ccc(N)cc2)[N-]1.[Ag+] (configuration not stated)
inactive: [3] 106 % of control | [4] 100 % of control | [5] 94 % of control

N#CC1C(=O)NC(=O)C(C#N)C1c1cccc(O)c1 (configuration not stated)
inactive: [3] 96 % of control | [4] 101 % of control | [5] 97 % of control

Cc1ccc(N2C(=O)c3cccc4c(N)c(S(=O)(=O)O)cc(c34)C2=O)cc1
inactive: dose: 50.0 mg/kg/injection, schedule: Q01DX009 (ip), vehicle: saline 108 % of control | dose: 100.0 mg/kg/injection, schedule: Q01DX009 (ip), vehicle: saline 104 % of control | dose: 200.0 mg/kg/injection, schedule: Q01DX009 (ip), vehicle: saline 100 % of control

CC1=NCCc2cc3c(cc21)OCO3
inactive: dose: 25.0 mg/kg/injection, schedule: Q01DX001 (ip), vehicle: saline + alcohol 99 % of control | dose: 50.0 mg/kg/injection, schedule: Q01DX001 (ip), vehicle: saline + alcohol 97 % of control

CCC1(C)C(C#N)C(=O)NC(=O)C1C#N (configuration not stated)
inactive: dose: 25.0 mg/kg/injection, schedule: Q01DX009 (ip), vehicle: saline with Tween-80 95 % of control | [6] 95 % of control

NC(=S)c1ccc(N=Cc2c(O)ccc3ccccc23)cc1
inactive: dose: 50.0 mg/kg/injection, schedule: Q01DX001 (ip), vehicle: Klucel (hydroxypropylcellulose) (HPC) 100 % of control | dose: 100.0 mg/kg/injection, schedule: Q01DX001 (ip), vehicle: Klucel (hydroxypropylcellulose) (HPC) 94 % of control | dose: 200.0 mg/kg/injection, schedule: Q01DX001 (ip), vehicle: Klucel (hydroxypropylcellulose) (HPC) 97 % of control

CCc1cnc(=S)n(-c2ccccc2)c1
inactive: dose: 100.0 mg/kg/injection, schedule: Q01DX001 (ip), vehicle: saline with Tween-80 99 % of control | dose: 200.0 mg/kg/injection, schedule: Q01DX001 (ip), vehicle: saline with Tween-80 95 % of control

C1CCC([Se][Se]C2CCCC2)C1
inactive: dose: 12.5 mg/kg/injection, schedule: Q01DX009 (ip), vehicle: Klucel (hydroxypropylcellulose) (HPC) 104 % of control | dose: 25.0 mg/kg/injection, schedule: Q01DX009 (ip), vehicle: Klucel (hydroxypropylcellulose) (HPC) 110 % of control | [3] 99 % of control and 101 % of control

C=CCSc1nc2ccc(N3C(=O)C4C5C=CC(C5)C4C3=O)cc2s1 (configuration not stated)
inactive: [3] 87 % of control | [4] 92 % of control | [5] 93 % of control

CC(=O)N1CCc2cc(C(C)C)ccc21
inactive: dose: 25.0 mg/kg/injection, schedule: Q01DX009 (ip), vehicle: other 97 % of control | dose: 50.0 mg/kg/injection, schedule: Q01DX009 (ip), vehicle: other 97 % of control | dose: 100.0 mg/kg/injection, schedule: Q01DX009 (ip), vehicle: other 91 % of control | dose: 200.0 mg/kg/injection, schedule: Q01DX009 (ip), vehicle: other 103 % of control | dose: 400.0 mg/kg/injection, schedule: Q01DX009 (ip), vehicle: other 88 % of control

c1ccc2c(-c3ccncc3)c3c(ccc4ccccc43)cc2c1
inactive: [1] 100 % of control | [2] 98 % of control | dose: 200.0 mg/kg/injection, schedule: Q01DX005 (ip), vehicle: saline with Tween-80 89 % of control

C[N+]1(C)Cc2ccccc2C1
inactive: dose: 12.5 mg/kg/injection, schedule: Q01DX009 (ip), vehicle: saline 105 % of control | dose: 25.0 mg/kg/injection, schedule: Q01DX009 (ip), vehicle: saline 108 % of control

CCOC12NC(=O)N(C)C1(OCC)C(=O)N(C)C(=O)N2C (configuration not stated)
inactive: [6] 91 % of control | dose: 100.0 mg/kg/injection, schedule: Q01DX009 (ip), vehicle: saline with Tween-80 92 % of control | dose: 200.0 mg/kg/injection, schedule: Q01DX009 (ip), vehicle: saline with Tween-80 88 % of control

CC(=O)C(=Cc1ccc(OC2OC(CO)C(O)C(O)C2O)cc1)C(C)=O (configuration not stated)
inactive: dose: 60.0 mg/kg/injection, schedule: Q01DX005 (ip), vehicle: saline 100 % of control | dose: 120.0 mg/kg/injection, schedule: Q01DX005 (ip), vehicle: saline 100 % of control | dose: 240.0 mg/kg/injection, schedule: Q01DX005 (ip), vehicle: saline 98 % of control

NC(C(=O)O)C1=CCCCCC1 (configuration not stated)
inactive: dose: 25.0 mg/kg/injection, schedule: Q01DX005 (ip), vehicle: Klucel (hydroxypropylcellulose) (HPC) 100 % of control | [7] 101 % of control | [8] 106 % of control | [9] 101 % of control

CCCC/C(=N\NC(N)=NC)c1ccccc1
inactive: dose: 25.0 mg/kg/injection, schedule: Q04DX002 (ip), vehicle: saline with Tween-80 99 % of control | dose: 50.0 mg/kg/injection, schedule: Q04DX002 (ip), vehicle: saline with Tween-80 100 % of control

CSCCC(NC=O)C(=O)NC(C(=O)O)C(C)C (stereo not drawn) (For-Met-Val-OH; configuration not given here)
inactive: [7] 101 % of control | [8] 97 % of control | [9] 101 % of control
